The values that follow come from publication PMC8611036, “An integrated method for optimized identification of effective natural inhibitors against SARS-CoV-2 3CLpro” (Scientific Reports, 2021).

Like-named read-outs stand apart in the source and are kept apart here.

In series [1] the target is T1, SARS-CoV-2 3CLpro (Severe acute respiratory syndrome coronavirus 2, UniProt P0DTD1). Put plainly: Surface plasmon resonance analysis (Biacore T200). In kind it is binding.
Series [2] deals with T1, SARS-CoV-2 3CLpro. Put plainly: Literature-collected IC50 of SARS-CoV-2 3CLpro inhibitors (test set). Type of series: biochemical. Particulars: class from pIC50 of the literature IC50.
In series [3] the target is T1, SARS-CoV-2 3CLpro. The following applies: cited from earlier work; for IC50: unit not printed (pIC50 corresponds to µM).
The subject of series [4] is SARS-CoV 3CLpro. In kind it is biochemical. The following applies: activity class by pIC50 threshold 6.
Series [5] has as its target T1, SARS-CoV-2 3CLpro. As to the kind of experiment: SARS-CoV-2 3CLpro inhibition assay (fluorogenic substrate Dabcyl-[…]-Edans). In kind it is biochemical.
Series [6] concerns SARS-CoV 3CLpro. Particulars: SARS-CoV 3CLpro inhibitors (training set), ref: per compound, cited from earlier work.
For series [7] the following is noted: ref TCMSP database, cited from earlier work; for HBA: number of hydrogen-bond acceptors; for HBD: number of hydrogen-bond donors; for OB (%): oral bioavailability.
Setting [8] is: SPR, 25 °C, 3CLpro-his captured on CM7 chip, read-out: KD.
Setting [9] is: from literature IC50, ref Zhu, Wei et al. ACS pharmacology & translational science vol. 3,5 (2020): 1008-1016.
[10] abbreviates: ref Zhu, Wei et al. ACS pharmacology & translational science vol. 3,5 (2020): 1008-1016.
[11] abbreviates: SARS-CoV-2 3CLpro in vitro dose–response inhibition, read-out: IC50.
Where [12] appears, read: from literature IC50, ref Jo, Seri et al. Journal of enzyme inhibition and medicinal chemistry vol. 35,1 (2020): 1539-1544.
[13] abbreviates: ref Jo, Seri et al. Journal of enzyme inhibition and medicinal chemistry vol. 35,1 (2020): 1539-1544.

One may read the Kd as the concentration at which binding is half-saturated. Turning to `O=C(/C=C/c1ccc(O)c(O)c1)O[C@@H]1C[C@@](OC(=O)/C=C/c2ccc(O)c(O)c2)(C(=O)O)C[C@@H](O)[C@@H]1O` [MOL007326], in series [1] (setting [8]), the dissociation constant Kd stood at 20.3 µM.
As a reminder, the pIC50 is the negative decadic logarithm of the IC50, by convention in mol/L. What is called IC50 is the concentration at which inhibition is half-maximal. Consider `O=C1/C(=C\c2ccc(-c3ccccc3)o2)C(c2ccccc2)=NN1c1ccccc1` [CMP10], for which the “Inact.(<6)/Act.(>=6)” value in series [2] and in series [4] was “Inact. (Inact.(<6))” each time. Besides, the pIC50 in series [3] (setting [9]) is reported as 4.652; in series [3] (test set (SARS-CoV-2 3CLpro inhibitors), collected from literature), 4.652. The IC50 in series [3] (setting [10]) is 22.3 µM.
In turn, `C[C@@H](CC[C@]1(O)O[C@H]2C[C@H]3[C@@H]4CC[C@@H]5C[C@@H](O[C@@H]6O[C@H](CO)[C@H](O)[C@H](O)[C@H]6O[C@@H]6O[C@H](CO)[C@@H](O)[C@H](O)[C@H]6O)CC[C@]5(C)[C@H]4CC[C@]3(C)[C@H]2[C@@H]1C)CO[C@@H]1O[C@H](CO)[C@@H](O)[C@H](O)[C@H]1O` [MOL004515] gave a Kd in series [1] of 7.2 µM.
As to `O=c1cc(-c2ccc(O)cc2)oc2c([C@@H]3O[C@H](CO)[C@@H](O)[C@H](O)[C@H]3O)c(O)c([C@@H]3OC[C@H](O)[C@H](O)[C@H]3O)c(O)c12` [Isoschaftoside, isoschaftoside], binding in series [1] was put at a Kd of 11.4 µM. The midpoint of inhibition in series [5], the IC50, lay at 30.2 µM.
Take `C[C@@H]1O[C@@H](OC[C@H]2O[C@@H](OCCc3ccc(O)c(O)c3)[C@H](O)[C@@H](O)[C@@H]2OC(=O)/C=C/c2ccc(O)c(O)c2)[C@H](O)[C@H](O)[C@H]1O` [MOL003331]: in series [1], the Kd stood at 1.21 µM.
For the molecule `O=c1c(O[C@@H]2O[C@H](CO[C@@H]3O[C@H](CO)[C@@H](O)[C@H](O)[C@H]3O)[C@@H](O)[C@H](O)[C@H]2O)c(-c2ccc(O)cc2)oc2cc(O)cc(O)c12` [Kaempferol-3-O-gentiobioside, kaempferol-3-O-gentiobioside], the Kd in series [1] (setting [8]) came to 2.69 µM. Moreover, in series [5] (setting [11]), the IC50 stood at 35.9 µM.
Molecule `C[C@@H]1O[C@@H](O[C@H]2[C@H](O[C@H]3CC[C@@]4(C)[C@@H](CC[C@]5(C)[C@H]4CC=C4[C@H]6CC(C)(C)CC[C@]6(C(=O)O[C@@H]6O[C@H](CO[C@@H]7O[C@H](CO)[C@@H](O)[C@H](O)[C@H]7O)[C@@H](O)[C@H](O)[C@H]6O)CC[C@]45C)[C@]3(C)CO)OC[C@H](O)[C@@H]2O)[C@H](O)[C@H](O)[C@H]1O` [MOL003034] returned a Kd in series [1] of 10.9 µM.
Turning to `COc1cc(-c2oc3cc(O)cc(O)c3c(=O)c2O[C@@H]2O[C@H](CO[C@@H]3O[C@@H](C)[C@H](O)[C@@H](O)[C@H]3O)[C@@H](O)[C@H](O)[C@H]2O)ccc1O` [Narcissoside, narcissoside], in series [1] (setting [8]), the Kd came to 10 µM. Besides, in series [5] (setting [11]), the IC50 worked out at 38.1 µM.
On to `O=c1c(O[C@@H]2O[C@H](CO)[C@@H](O)[C@H](O)[C@H]2O[C@@H]2O[C@H](CO)[C@@H](O)[C@H](O)[C@H]2O)c(-c2ccc(O)cc2)oc2cc(O)cc(O)c12` [MOL002761], for which, in series [1] (setting [8]), the Kd came to 12.5 µM.
In series [1], `C[C@@H]1O[C@@H](OC[C@H]2O[C@@H](Oc3c(-c4ccc(O)cc4)oc4cc(O)cc(O)c4c3=O)[C@H](O)[C@@H](O)[C@@H]2O)[C@H](O)[C@H](O)[C@H]1O` [MOL002693] showed a Kd of 3.63 µM.
In the case of `O=C(/C=C/c1ccc(O)c2c1[C@H](C(=O)O[C@H](Cc1ccc(O)c(O)c1)C(=O)O)[C@@H](c1ccc(O)c(O)c1)O2)O[C@H](Cc1ccc(O)c(O)c1)C(=O)O` [MOL007060], the Kd in series [1] amounted to 64 µM.
Consider `O=c1c(O[C@@H]2O[C@H](CO)[C@H](O)[C@H](O)[C@H]2O)c(-c2ccc(O)c(O)c2)oc2cc(O)cc(O)c12` [MOL004368], for which, in series [1] (setting [8]), the Kd is 9.98 µM.
On to `O=C(/C=C/c1ccc(O)c2c1[C@H](C(=O)O)[C@@H](c1ccc(O)c(O)c1)O2)O[C@H](Cc1ccc(O)c(O)c1)C(=O)O` [MOL007113], for which binding in series [1] was characterised by a dissociation constant (Kd) of 15 µM.
Same read-out and setting: then `C[C@@H]1O[C@@H](O[C@@H]2[C@@H](O)[C@H](OCCc3ccc(O)c(O)c3)O[C@H](CO)[C@H]2OC(=O)/C=C/c2ccc(O)c(O)c2)[C@H](O)[C@H](O)[C@H]1O` [MOL003333], with 0.409 µM.
Turning to `COc1cc(-c2oc3cc(O)cc(O)c3c(=O)c2O[C@@H]2O[C@H](CO)[C@@H](O)[C@H](O)[C@H]2O)ccc1O` [MOL007260], the Kd in series [1] (setting [8]) was determined as 9.45 µM.
Same read-out and setting: then `O=C(/C=C/c1ccc(O)c(O)c1)O[C@H]1[C@H](O)C[C@](O)(C(=O)O)C[C@H]1OC(=O)/C=C/c1ccc(O)c(O)c1` [MOL001878], with 0.047 µM.
Regarding `O=C(O)c1ccccc1-c1ccc(/C=C2\C(=O)N(c3ccccc3)N=C2c2ccccc2)o1` [CMP13, reference compound], the “Inact.(<6)/Act.(>=6)” value in series [2] and in series [4] was “Inact. (Inact.(<6))” each time. Also, the pIC50 in series [6] (from literature IC50) is 4.3851; in series [3] (setting [9]) it was 5.4828. The IC50 is 41.2 µM in series [6] (literature values) and 3.29 µM in series [3] (setting [10]).
Consider `COc1ccc(-c2cc(=O)c3c(O)c(OC)c(OC4OC(COC5OC(C)C(O)C(O)C5O)C(O)C(O)C4O)cc3o2)cc1` (stereo not shown) [CMP84], for which the “Inact.(<6)/Act.(>=6)” value in series [2] is reported as “Inact. (Inact.(<6))”. Moreover, the pIC50 in series [3] (setting [12]) was 4.287. Also, in series [3] (setting [13]), the IC50 is 51.6 µM.
Molecule `O=c1cc(-c2ccc(O)cc2)oc2c([C@@H]3O[C@H](CO)[C@@H](O)[C@H](O)[C@H]3O)c(O)c([C@@H]3O[C@H](CO)[C@@H](O)[C@H](O)[C@H]3O)c(O)c12` [Vicenin-2, vicenin-2] had an equilibrium dissociation constant (Kd) in series [1] of 8.58 µM. This molecule gave an IC50 in series [5] of 38.9 µM.
The molecule `Cc1cc(O)c2c(=O)c3c(O)cc(O)c4c5c(O)cc(O)c6c(=O)c7c(O)cc(C)c8c1c2c(c34)c(c78)c65` [MOL002067] registered a Kd in series [1] of 19.9 µM.
With `O=c1cc(-c2ccc(O)cc2)oc2cc(O[C@@H]3O[C@H](CO)[C@@H](O)[C@H](O)[C@H]3O)cc(O)c12` [MOL000007, Cosmetin], in series [7], the HBA was 10, the HBD is listed as 6, the “OB (%)” value is listed as 9.68% and the BBB is reported as -2.26. In addition, in series [7], the Caco-2 was -1.08, the FASA- was 0.32 and the NRotB was 4.
Regarding `O=c1c(O)c(-c2ccc(O)cc2)oc2cc(O)cc(O)c12` [MOL000422], the Kd in series [1] (setting [8]) worked out at 24.6 µM.
`O=c1c(O)c(-c2ccc(O)cc2)oc2c(O)c(O)cc(O)c12` [CMP83]: the “Inact.(<6)/Act.(>=6)” value in series [2] was “Inact. (Inact.(<6))”. The pIC50 in series [3] (setting [12]) is on record as 4.268. In addition, the IC50 in series [3] (setting [13]) was 53.9 µM.
As for cyanidol [MOL000002], in series [7], the HBA is 6, the HBD is reported as 5, the “OB (%)” value is given as 1.36% and the BBB is listed as -0.51. In series [7], the FASA- is on record as 0.34 and the NRotB was 1.
